Laboratory results published in patent US4667027A, “Cephem compounds and their production” (Takeda Chemical Industries, Ltd., priority 1984, dated 1987).
Values after ≈ are worked out from the molar mass of the structure shown.

Test system: Staphylococcus aureus FDA 209P
Experiment: Antimicrobial spectrum, minimal inhibitory concentration (agar dilution)
Assay type: cell-based
Conditions: FDA209P, hydrochloride, inoculum 1 loopful of about 10^6/ml
Description: (§1) *Culture medium: 17.5 g of Bacto antibiotic medium 3 (Difco), 5 g of Bact
(§2) yeast extract (Difco), 20 g of Bacto agar (Difco), 1 l of distilled water
(§3) The amount of inoculated microorganism: 1 loopful of about 10^6 /ml o
(§4) microorganism suspension.
(§5) *Medium: Bacto antibiotic medium (Difco) 17.5 g, Bacto yeast extract
(§6) (Difco) 5 g, Bacto agar (Difco) 20 g, distilled water 1 l, pH not

Row | MIC | SMILES
1 | 50 µg/mL (≈ 61.1 µM) | CC(N)C(=O)NC(CO)C(=O)NC(CO)C(=O)NC(CCCNC(=N)N)C(O)CC(=O)OCC1=C(C(=O)O)N2C(=O)C(NC(=O)CCCC(N)C(=O)O)C2SC1 (stereo not drawn) [TAN-592F]

Test system: Salmonella typhimurium IFO 12529
Experiment: as above
Assay type: cell-based
Conditions: Salmonella enterica, hydrochloride, inoculum 1 loopful of about 10^6/ml
Description: as §1, §2, §3, §4, §5, §6

Row | MIC | SMILES
2 | > 50 µg/mL | CC(N)C(=O)NC(CO)C(=O)NC(CO)C(=O)NC(CCCNC(=N)N)C(O)CC(=O)OCC1=C(C(=O)O)N2C(=O)C(NC(=O)CCCC(N)C(=O)O)C2SC1 (stereo not drawn) [TAN-592F]

Test system: Klebsiella pneumoniae IFO 3317
Experiment: as above
Assay type: cell-based
Conditions: IFO3317, hydrochloride, inoculum 1 loopful of about 10^6/ml
Description: as §1, §2, §3, §4, §5, §6

Row | MIC | SMILES
3 | > 50 µg/mL | CC(N)C(=O)NC(CO)C(=O)NC(CO)C(=O)NC(CCCNC(=N)N)C(O)CC(=O)OCC1=C(C(=O)O)N2C(=O)C(NC(=O)CCCC(N)C(=O)O)C2SC1 (stereo not drawn) [TAN-592F]

Test system: Bacillus subtilis NIHJ PCI 219
Experiment: as above
Assay type: cell-based
Conditions: hydrochloride, inoculum 1 loopful of about 10^6/ml
Description: as §1, §2, §3, §4, §5, §6

Row | MIC | SMILES
4 | 1.56 µg/mL (≈ 1.91 µM) | CC(N)C(=O)NC(CO)C(=O)NC(CO)C(=O)NC(CCCNC(=N)N)C(O)CC(=O)OCC1=C(C(=O)O)N2C(=O)C(NC(=O)CCCC(N)C(=O)O)C2SC1 (stereo not drawn) [TAN-592F]

Test system: Escherichia coli NIHJ JC-2
Experiment: as above
Assay type: cell-based
Conditions: NIHJJC2, hydrochloride, inoculum 1 loopful of about 10^6/ml
Description: as §1, §2, §3, §4, §5, §6

Row | MIC | SMILES
5 | > 50 µg/mL | CC(N)C(=O)NC(CO)C(=O)NC(CO)C(=O)NC(CCCNC(=N)N)C(O)CC(=O)OCC1=C(C(=O)O)N2C(=O)C(NC(=O)CCCC(N)C(=O)O)C2SC1 (stereo not drawn) [TAN-592F]

Test system: Bacillus megaterium IFO 12108
Experiment: as above
Assay type: cell-based
Conditions: Priestia megaterium, IFO12108, hydrochloride, inoculum 1 loopful of about 10^6/ml
Description: as §1, §2, §3, §4, §5, §6

Row | MIC | SMILES
6 | 1.56 µg/mL (≈ 1.91 µM) | CC(N)C(=O)NC(CO)C(=O)NC(CO)C(=O)NC(CCCNC(=N)N)C(O)CC(=O)OCC1=C(C(=O)O)N2C(=O)C(NC(=O)CCCC(N)C(=O)O)C2SC1 (stereo not drawn) [TAN-592F]

Test system: Citrobacter freundii IFO 12681
Experiment: as above
Assay type: cell-based
Conditions: IFO12681, hydrochloride, inoculum 1 loopful of about 10^6/ml
Description: as §1, §2, §3, §4, §5, §6

Row | MIC | SMILES
7 | > 50 µg/mL | CC(N)C(=O)NC(CO)C(=O)NC(CO)C(=O)NC(CCCNC(=N)N)C(O)CC(=O)OCC1=C(C(=O)O)N2C(=O)C(NC(=O)CCCC(N)C(=O)O)C2SC1 (stereo not drawn) [TAN-592F]

Test system: Proteus vulgalis IFO 3988
Experiment: as above
Assay type: cell-based
Conditions: hydrochloride, inoculum 1 loopful of about 10^6/ml
Description: as §1, §2, §3, §4, §5, §6

Row | MIC | SMILES
8 | 50 µg/mL (≈ 61.1 µM) | CC(N)C(=O)NC(CO)C(=O)NC(CO)C(=O)NC(CCCNC(=N)N)C(O)CC(=O)OCC1=C(C(=O)O)N2C(=O)C(NC(=O)CCCC(N)C(=O)O)C2SC1 (stereo not drawn) [TAN-592F]

Test system: Serratia marcescens IFO 12648
Experiment: as above
Assay type: cell-based
Conditions: IFO12648, hydrochloride, inoculum 1 loopful of about 10^6/ml
Description: as §1, §2, §3, §4, §5, §6

Row | MIC | SMILES
9 | > 50 µg/mL | CC(N)C(=O)NC(CO)C(=O)NC(CO)C(=O)NC(CCCNC(=N)N)C(O)CC(=O)OCC1=C(C(=O)O)N2C(=O)C(NC(=O)CCCC(N)C(=O)O)C2SC1 (stereo not drawn) [TAN-592F]

Test system: Acinetobacter calcoaceticus IFO 12552
Experiment: as above
Assay type: cell-based
Conditions: IFO12552, hydrochloride, inoculum 1 loopful of about 10^6/ml
Description: as §1, §2, §3, §4, §5, §6

Row | MIC | SMILES
10 | > 50 µg/mL | CC(N)C(=O)NC(CO)C(=O)NC(CO)C(=O)NC(CCCNC(=N)N)C(O)CC(=O)OCC1=C(C(=O)O)N2C(=O)C(NC(=O)CCCC(N)C(=O)O)C2SC1 (stereo not drawn) [TAN-592F]

Test system: Alcaligenes faecalis IFO 13111
Experiment: as above
Assay type: cell-based
Conditions: IFO13111, hydrochloride, inoculum 1 loopful of about 10^6/ml
Description: as §1, §2, §3, §4, §5, §6

Row | MIC | SMILES
11 | 12.5 µg/mL (≈ 15.3 µM) | CC(N)C(=O)NC(CO)C(=O)NC(CO)C(=O)NC(CCCNC(=N)N)C(O)CC(=O)OCC1=C(C(=O)O)N2C(=O)C(NC(=O)CCCC(N)C(=O)O)C2SC1 (stereo not drawn) [TAN-592F]

Test system: Pseudomonas aeruginosa IFO 3080
Experiment: as above
Assay type: cell-based
Conditions: IFO3080, hydrochloride, inoculum 1 loopful of about 10^6/ml
Description: as §1, §2, §3, §4, §5, §6

Row | MIC | SMILES
12 | > 50 µg/mL | CC(N)C(=O)NC(CO)C(=O)NC(CO)C(=O)NC(CCCNC(=N)N)C(O)CC(=O)OCC1=C(C(=O)O)N2C(=O)C(NC(=O)CCCC(N)C(=O)O)C2SC1 (stereo not drawn) [TAN-592F]

Test system: Brevibacterium thiogenitalis ATCC 19240
Experiment: as above
Assay type: cell-based
Conditions: Corynebacterium glutamicum, ATCC19240, hydrochloride, inoculum 1 loopful of about 10^6/ml
Description: as §1, §2, §3, §4, §5, §6

Row | MIC | SMILES
13 | 3.13 µg/mL (≈ 3.82 µM) | CC(N)C(=O)NC(CO)C(=O)NC(CO)C(=O)NC(CCCNC(=N)N)C(O)CC(=O)OCC1=C(C(=O)O)N2C(=O)C(NC(=O)CCCC(N)C(=O)O)C2SC1 (stereo not drawn) [TAN-592F]

Test system: not listed separately
Experiment: Solubility in solvents
Assay type: physicochemical
Conditions: dimethylsulfoxide, methanol, acetone, ethyl acetate; hydrochloride

Row | Solubility | SMILES
14 | Sparingly soluble | CC(N)C(=O)NC(CO)C(=O)NC(CO)C(=O)NC(CCCNC(=N)N)C(O)CC(=O)OCC1=C(C(=O)O)N2C(=O)C(NC(=O)CCCC(N)C(=O)O)C2SC1 (stereo not drawn) [TAN-592F]

Same assay, conditions: water, aqueous acetone, aqueous alcohol; hydrochloride

Row | Solubility | SMILES
15 | Easily soluble | CC(N)C(=O)NC(CO)C(=O)NC(CO)C(=O)NC(CCCNC(=N)N)C(O)CC(=O)OCC1=C(C(=O)O)N2C(=O)C(NC(=O)CCCC(N)C(=O)O)C2SC1 (stereo not drawn) [TAN-592F]
